{
  "source": "PubChem BioAssay AID1963837",
  "about": "(Molecular Pharmacology Branch, DTP, NCI, 2024)",
  "system": "843126-344-R-J1-PDC complex spheroid viability",
  "experiment": "Anticancer human tumor 843126-344-R-J1-PDC patient-derived melanoma cell line growth inhibition [POLQ]",
  "conditions": "for IC50: curve of first compound; for viability, T/C: stronger effect = lower value",
  "summary_of_the_method": "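Complex spheroid viability model combining PDC tumour cells with endothelial (HUVEC) and MSC stromal cells. Novobiocin, ART-558 or RP6685 were tested singly and in combination with standard and investigational anticancer drugs. Each was titrated in half-log steps from near clinical Cmax, or from 10 microM where Cmax was unknown.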",
  "key": {"[1]": {"conditions": "second compound 0.0316 µM, first compound 0.0316 µM"}, "[2]": {"conditions": "second compound 0.0316 µM, first compound 0.1 µM"}, "[3]": {"conditions": "second compound 0.0316 µM, first compound 0.316 µM"}, "[4]": {"conditions": "second compound 0.0316 µM, first compound 1 µM"}, "[5]": {"conditions": "second compound 0.1 µM, first compound 0.0316 µM"}, "[6]": {"conditions": "second compound 0.1 µM, first compound 0.1 µM"}, "[7]": {"conditions": "second compound 0.1 µM, first compound 0.316 µM"}, "[8]": {"conditions": "second compound 0.1 µM, first compound 1 µM"}, "[9]": {"conditions": "second compound 0.316 µM, first compound 0.0316 µM"}, "[10]": {"conditions": "second compound 0.316 µM, first compound 0.1 µM"}, "[11]": {"conditions": "second compound 0.316 µM, first compound 0.316 µM"}, "[12]": {"conditions": "second compound 0.316 µM, first compound 1 µM"}, "[13]": {"conditions": "second compound 1 µM, first compound 0.0316 µM"}, "[14]": {"conditions": "second compound 1 µM, first compound 0.1 µM"}, "[15]": {"conditions": "second compound 1 µM, first compound 0.316 µM"}, "[16]": {"conditions": "second compound 1 µM, first compound 1 µM"}, "[17]": {"conditions": "second compound 3.16 µM, first compound 0.0316 µM"}, "[18]": {"conditions": "second compound 3.16 µM, first compound 0.1 µM"}, "[19]": {"conditions": "second compound 3.16 µM, first compound 0.316 µM"}, "[20]": {"conditions": "second compound 3.16 µM, first compound 1 µM"}, "[21]": {"conditions": "second compound 10 µM, first compound 0.0316 µM"}, "[22]": {"conditions": "second compound 10 µM, first compound 0.1 µM"}, "[23]": {"conditions": "second compound 10 µM, first compound 0.316 µM"}, "[24]": {"conditions": "second compound 10 µM, first compound 1 µM"}},
  "data": [
    {"compound": "CCc1c2c(nc3ccc(O)cc13)-c1cc3c(c(=O)n1C2)COC(=O)[C@]3(O)CC", "note": "+ Nc1ccc(C#CCN(C(=O)Cc2ncc(C(F)(F)F)cc2C(F)(F)F)c2ccc(F)cc2)nn1;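 as to viability, T/C: spheroids exposed to drugs for seven days before readout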", "values": [
      {"measurement": "IC50", "setting": "second compound 0.0316 µM", "value": "> 1", "unit": "µM"},
      {"measurement": "IC50", "setting": "second compound 0.1 µM", "value": "> 1", "unit": "µM"},
      {"measurement": "IC50", "setting": "second compound 0.316 µM", "value": "> 1", "unit": "µM"},
      {"measurement": "IC50", "setting": "second compound 1 µM", "value": "> 1", "unit": "µM"},
      {"measurement": "IC50", "setting": "second compound 3.16 µM", "value": "> 1", "unit": "µM"},
      {"measurement": "IC50", "setting": "second compound 10 µM", "value": "> 1", "unit": "µM"},
      {"measurement": "viability, T/C", "setting": "second compound 0.0316 µM, first compound 0.00316 µM", "value": 68.2, "unit": "%"},
      {"measurement": "viability, T/C", "setting": "second compound 0.0316 µM, first compound 0.01 µM", "value": 60, "unit": "%"},
      {"measurement": "viability, T/C", "setting": "[1]", "value": 63.9, "unit": "%"},
      {"measurement": "viability, T/C", "setting": "[2]", "value": 64.7, "unit": "%"},
      {"measurement": "viability, T/C", "setting": "[3]", "value": 58.8, "unit": "%"},
      {"measurement": "viability, T/C", "setting": "[4]", "value": 49.1, "unit": "%"},
      {"measurement": "viability, T/C", "setting": "second compound 0.1 µM, first compound 0.00316 µM", "value": 64.3, "unit": "%"},
      {"measurement": "viability, T/C", "setting": "second compound 0.1 µM, first compound 0.01 µM", "value": 47.4, "unit": "%"},
      {"measurement": "viability, T/C", "setting": "[5]", "value": 59, "unit": "%"},
      {"measurement": "viability, T/C", "setting": "[6]", "value": 65.8, "unit": "%"},
      {"measurement": "viability, T/C", "setting": "[7]", "value": 65, "unit": "%"},
      {"measurement": "viability, T/C", "setting": "[8]", "value": 47.9, "unit": "%"},
      {"measurement": "viability, T/C", "setting": "second compound 0.316 µM, first compound 0.00316 µM", "value": 69.5, "unit": "%"},
      {"measurement": "viability, T/C", "setting": "second compound 0.316 µM, first compound 0.01 µM", "value": 56.3, "unit": "%"},
      {"measurement": "viability, T/C", "setting": "[9]", "value": 61.3, "unit": "%"},
      {"measurement": "viability, T/C", "setting": "[10]", "value": 57.2, "unit": "%"},
      {"measurement": "viability, T/C", "setting": "[11]", "value": 63.3, "unit": "%"},
      {"measurement": "viability, T/C", "setting": "[12]", "value": 48.5, "unit": "%"},
      {"measurement": "viability, T/C", "setting": "second compound 1 µM, first compound 0.00316 µM", "value": 75.3, "unit": "%"},
      {"measurement": "viability, T/C", "setting": "second compound 1 µM, first compound 0.01 µM", "value": 46.9, "unit": "%"},
      {"measurement": "viability, T/C", "setting": "[13]", "value": 61.3, "unit": "%"},
      {"measurement": "viability, T/C", "setting": "[14]", "value": 62.8, "unit": "%"},
      {"measurement": "viability, T/C", "setting": "[15]", "value": 66.5, "unit": "%"},
      {"measurement": "viability, T/C", "setting": "[16]", "value": 46.3, "unit": "%"},
      {"measurement": "viability, T/C", "setting": "second compound 3.16 µM, first compound 0.00316 µM", "value": 70.3, "unit": "%"},
      {"measurement": "viability, T/C", "setting": "second compound 3.16 µM, first compound 0.01 µM", "value": 64.5, "unit": "%"},
      {"measurement": "viability, T/C", "setting": "[17]", "value": 52.7, "unit": "%"},
      {"measurement": "viability, T/C", "setting": "[18]", "value": 72.5, "unit": "%"},
      {"measurement": "viability, T/C", "setting": "[19]", "value": 63.3, "unit": "%"},
      {"measurement": "viability, T/C", "setting": "[20]", "value": 52.2, "unit": "%"},
      {"measurement": "viability, T/C", "setting": "second compound 10 µM, first compound 0.00316 µM", "value": 67.7, "unit": "%"},
      {"measurement": "viability, T/C", "setting": "second compound 10 µM, first compound 0.01 µM", "value": 55.2, "unit": "%"},
      {"measurement": "viability, T/C", "setting": "[21]", "value": 54.6, "unit": "%"},
      {"measurement": "viability, T/C", "setting": "[22]", "value": 69.8, "unit": "%"},
      {"measurement": "viability, T/C", "setting": "[23]", "value": 65.4, "unit": "%"},
      {"measurement": "viability, T/C", "setting": "[24]", "value": 41, "unit": "%"}
    ]},
    {"compound": "O=c1[nH]cc(F)c(=O)[nH]1", "note": "+ Cc1cccc(N(C)C(=O)C2C(O)CCN2c2nc(C)cc(C(F)(F)F)c2C#N)c1", "values": [
      {"measurement": "IC50", "setting": "second compound 0.0316 µM", "value": "> 10", "unit": "µM"},
      {"measurement": "IC50", "setting": "second compound 0.1 µM", "value": "> 10", "unit": "µM"},
      {"measurement": "IC50", "setting": "second compound 0.316 µM", "value": "> 10", "unit": "µM"},
      {"measurement": "IC50", "setting": "second compound 1 µM", "value": "> 10", "unit": "µM"},
      {"measurement": "IC50", "setting": "second compound 3.16 µM", "value": "> 10", "unit": "µM"},
      {"measurement": "IC50", "setting": "second compound 10 µM", "value": "> 10", "unit": "µM"},
      {"measurement": "viability, T/C", "setting": "[1]", "value": 101, "unit": "%"},
      {"measurement": "viability, T/C", "setting": "[2]", "value": 112, "unit": "%"},
      {"measurement": "viability, T/C", "setting": "[3]", "value": 104, "unit": "%"},
      {"measurement": "viability, T/C", "setting": "[4]", "value": 101, "unit": "%"},
      {"measurement": "viability, T/C", "setting": "second compound 0.0316 µM, first compound 3.16 µM", "value": 87.3, "unit": "%"},
      {"measurement": "viability, T/C", "setting": "second compound 0.0316 µM, first compound 10 µM", "value": 79.3, "unit": "%"},
      {"measurement": "viability, T/C", "setting": "[5]", "value": 99.8, "unit": "%"},
      {"measurement": "viability, T/C", "setting": "[6]", "value": 98.3, "unit": "%"},
      {"measurement": "viability, T/C", "setting": "[7]", "value": 96.5, "unit": "%"},
      {"measurement": "viability, T/C", "setting": "[8]", "value": 97.5, "unit": "%"},
      {"measurement": "viability, T/C", "setting": "second compound 0.1 µM, first compound 3.16 µM", "value": 81.5, "unit": "%"},
      {"measurement": "viability, T/C", "setting": "second compound 0.1 µM, first compound 10 µM", "value": 93.2, "unit": "%"},
      {"measurement": "viability, T/C", "setting": "[9]", "value": 105, "unit": "%"},
      {"measurement": "viability, T/C", "setting": "[10]", "value": 108, "unit": "%"},
      {"measurement": "viability, T/C", "setting": "[11]", "value": 96.7, "unit": "%"},
      {"measurement": "viability, T/C", "setting": "[12]", "value": 82.2, "unit": "%"},
      {"measurement": "viability, T/C", "setting": "second compound 0.316 µM, first compound 3.16 µM", "value": 110, "unit": "%"},
      {"measurement": "viability, T/C", "setting": "second compound 0.316 µM, first compound 10 µM", "value": 103, "unit": "%"},
      {"measurement": "viability, T/C", "setting": "[13]", "value": 101, "unit": "%"},
      {"measurement": "viability, T/C", "setting": "[14]", "value": 88.6, "unit": "%"},
      {"measurement": "viability, T/C", "setting": "[15]", "value": 107, "unit": "%"},
      {"measurement": "viability, T/C", "setting": "[16]", "value": 110, "unit": "%"},
      {"measurement": "viability, T/C", "setting": "second compound 1 µM, first compound 3.16 µM", "value": 113, "unit": "%"},
      {"measurement": "viability, T/C", "setting": "second compound 1 µM, first compound 10 µM", "value": 96.5, "unit": "%"},
      {"measurement": "viability, T/C", "setting": "[17]", "value": 99.3, "unit": "%"},
      {"measurement": "viability, T/C", "setting": "[18]", "value": 94.5, "unit": "%"},
      {"measurement": "viability, T/C", "setting": "[19]", "value": 113, "unit": "%"},
      {"measurement": "viability, T/C", "setting": "[20]", "value": 95.8, "unit": "%"},
      {"measurement": "viability, T/C", "setting": "second compound 3.16 µM, first compound 3.16 µM", "value": 103, "unit": "%"},
      {"measurement": "viability, T/C", "setting": "second compound 3.16 µM, first compound 10 µM", "value": 91.5, "unit": "%"},
      {"measurement": "viability, T/C", "setting": "[21]", "value": 91.1, "unit": "%"},
      {"measurement": "viability, T/C", "setting": "[22]", "value": 85.8, "unit": "%"},
      {"measurement": "viability, T/C", "setting": "[23]", "value": 104, "unit": "%"},
      {"measurement": "viability, T/C", "setting": "[24]", "value": 102, "unit": "%"},
      {"measurement": "viability, T/C", "setting": "second compound 10 µM, first compound 3.16 µM", "value": 111, "unit": "%"},
      {"measurement": "viability, T/C", "setting": "second compound 10 µM, first compound 10 µM", "value": 90, "unit": "%"}
    ]}
  ]
}
